Measured values: PubChem BioAssay AID1259407 (Chemical Carcinogenesis Research Information System (CCRIS), 2018)
The source made the active and inactive calls. How the calls were made is not given here.

System: CCRIS mutagenicity, Ames/micronucleus/aberration tests
Test: CCRIS mutagenicity studies
[1] = Test System: AMES SALMONELLA TYPHIMURIUM, Strain/Indicator: TA98, Metabolic Activation: NONE
[2] = Test System: AMES SALMONELLA TYPHIMURIUM, Strain/Indicator: TA100, Metabolic Activation: NONE, Method: PREINCUBATION
[3] = Test System: AMES SALMONELLA TYPHIMURIUM, Strain/Indicator: TA100, Metabolic Activation: NONE, Method: STANDARD PLATE
[4] = Test System: AMES SALMONELLA TYPHIMURIUM, Strain/Indicator: TA98, Metabolic Activation: NONE, Method: PREINCUBATION

## O=C1CCCc2cc3c(cc21)cc([N+](=O)[O-])c1ccccc13
Test System: AMES SALMONELLA TYPHIMURIUM, Strain/Indicator: TA98-1,8-DNP6, Metabolic Activation: NONE
  mutagenic call: active; positive
Test System: AMES SALMONELLA TYPHIMURIUM, Strain/Indicator: TA98-1,8-DNP6, Metabolic Activation: S-9
  mutagenic call: inactive; negative
[1]
  mutagenic call: active; positive
Test System: AMES SALMONELLA TYPHIMURIUM, Strain/Indicator: TA98, Metabolic Activation: S-9
  mutagenic call: active; positive
Test System: AMES SALMONELLA TYPHIMURIUM, Strain/Indicator: TA98NR, Metabolic Activation: NONE
  mutagenic call: active; positive
Test System: AMES SALMONELLA TYPHIMURIUM, Strain/Indicator: TA98NR, Metabolic Activation: S-9
  mutagenic call: active; positive
Test System: AMES SALMONELLA TYPHIMURIUM, Strain/Indicator: TA100, Metabolic Activation: NONE
  mutagenic call: active; positive
Test System: AMES SALMONELLA TYPHIMURIUM, Strain/Indicator: TA100, Metabolic Activation: S-9
  mutagenic call: active; positive
Test System: AMES SALMONELLA TYPHIMURIUM, Strain/Indicator: TA100NR, Metabolic Activation: NONE
  mutagenic call: active; positive
Test System: AMES SALMONELLA TYPHIMURIUM, Strain/Indicator: TA100NR, Metabolic Activation: S-9
  mutagenic call: active; positive

## O=c1c(O)c(-c2ccccc2)oc2cc(O)cc(O)c12
[2]
  mutagenic call: inactive; negative
Test System: AMES SALMONELLA TYPHIMURIUM, Strain/Indicator: TA100, Metabolic Activation: RAT LIVER S-9, AROCLOR 1254, Method: PREINCUBATION
  mutagenic call: inactive; negative

## N#Cc1ccc(CCl)cc1
[3]
  mutagenic call: inactive; negative

## Nc1nc(NO)c2ncn([C@@H]3O[C@H](CO)[C@@H](O)[C@H]3O)c2n1
Test System: AMES SALMONELLA TYPHIMURIUM, Strain/Indicator: TA100(TN5-1,8-DNP1011), Metabolic Activation: NONE, Method: STANDARD PLATE
  mutagenic call: active; positive
Test System: AMES SALMONELLA TYPHIMURIUM, Strain/Indicator: TA100(TN5-1,8-DNP1012), Metabolic Activation: NONE, Method: STANDARD PLATE
  mutagenic call: active; positive
[3]
  mutagenic call: active; positive

## Nc1ccc(-c2cc(Cl)c(N)c(Cl)c2)cc1
Test System: AMES SALMONELLA TYPHIMURIUM, Strain/Indicator: TA98, Metabolic Activation: HAMSTER, LIVER, S-9, Method: PREINCUBATION
  mutagenic call: active; positive
[4]
  mutagenic call: inactive; negative

## O=[N+]([O-])c1ccc2ccc3nc4ccccc4c4ccc1c2c34
Test System: AMES SALMONELLA TYPHIMURIUM, Strain/Indicator: TA98(1,8-DNP6), Metabolic Activation: NONE
  mutagenic call: active; positive
Test System: AMES SALMONELLA TYPHIMURIUM, Strain/Indicator: TA98(NR), Metabolic Activation: NONE
  mutagenic call: active; positive
[1]
  mutagenic call: active; positive

## [Cl][Mn][Cl]
[4]
  mutagenic call: inactive; negative
Test System: AMES SALMONELLA TYPHIMURIUM, Strain/Indicator: TA98, Metabolic Activation: RAT LIVER S-9, PHENOBARBITAL AND BETA-NAPHTHOFLAVONE, Method: PREINCUBATION
  mutagenic call: inactive; negative
[2]
  mutagenic call: inactive; negative
Test System: AMES SALMONELLA TYPHIMURIUM, Strain/Indicator: TA100, Metabolic Activation: RAT LIVER S-9, PHENOBARBITAL AND BETA-NAPHTHOFLAVONE, Method: PREINCUBATION
  mutagenic call: inactive; negative
Test System: AMES SALMONELLA TYPHIMURIUM, Strain/Indicator: TA102, Metabolic Activation: NONE, Method: STANDARD PLATE
  mutagenic call: active; positive
Test System: AMES SALMONELLA TYPHIMURIUM, Strain/Indicator: TA1535, Metabolic Activation: NONE, Method: PREINCUBATION
  mutagenic call: inactive; negative
Test System: AMES SALMONELLA TYPHIMURIUM, Strain/Indicator: TA1535, Metabolic Activation: RAT LIVER S-9, PHENOBARBITAL AND BETA-NAPHTHOFLAVONE, Method: PREINCUBATION
  mutagenic call: inactive; negative
Test System: AMES SALMONELLA TYPHIMURIUM, Strain/Indicator: TA1537, Metabolic Activation: NONE, Method: PREINCUBATION
  mutagenic call: inactive; negative
Test System: AMES SALMONELLA TYPHIMURIUM, Strain/Indicator: TA1537, Metabolic Activation: RAT LIVER S-9, PHENOBARBITAL AND BETA-NAPHTHOFLAVONE, Method: PREINCUBATION
  mutagenic call: inactive; negative
Test System: AMES SALMONELLA TYPHIMURIUM, Strain/Indicator: TA1538, Metabolic Activation: NONE, Method: PREINCUBATION
  mutagenic call: inactive; negative
Test System: AMES SALMONELLA TYPHIMURIUM, Strain/Indicator: TA1538, Metabolic Activation: RAT LIVER S-9, PHENOBARBITAL AND BETA-NAPHTHOFLAVONE, Method: PREINCUBATION
  mutagenic call: inactive; negative
Test System: E. COLI, Strain/Indicator: WP2 UVRA, Metabolic Activation: NONE, Method: SPOT TEST
  mutagenic call: inactive; negative
Test System: E.COLI, Strain/Indicator: WP2UVRA, Metabolic Activation: NONE, Method: PREINCUBATION
  mutagenic call: inactive; negative
Test System: E.COLI, Strain/Indicator: WP2UVRA, Metabolic Activation: RAT LIVER S-9, PHENOBARBITAL AND BETA-NAPHTHOFLAVONE, Method: PREINCUBATION
  mutagenic call: inactive; negative

## Fc1cccc2ncccc12
End Point: In vitro chromosomal aberrations, Test System: Chinese hamster lung fibroblast cells (CHL/IU), Metabolic Activation: Rat, liver, S-9
  mutagenic call: active; positive, described as marginally clastogenic at non toxic doses. (information d
End Point: In vitro micronucleus, Test System: Chinese hamster lung fibroblast cells (CHL/IU), Metabolic Activation: Rat, liver, S-9
  mutagenic call: active; positive (information derived from a figure)
Test System: AMES SALMONELLA TYPHIMURIUM, Strain/Indicator: TA100, Metabolic Activation: RAT LIVER S-9, PHENOBARBITAL AND 5,6-BENZOFLAVONE, Method: PREINCUBATION
  mutagenic call: active; positive
Test System: AMES SALMONELLA TYPHIMURIUM, Strain/Indicator: TA100, Metabolic Activation: RAT, LIVER, S-9, AROCLOR 1254, Method: PREINCUBATION
  mutagenic call: active; positive
Test System: AMES SALMONELLA TYPHIMURIUM, Strain/Indicator: TA100, Metabolic Activation: RAT, LIVER, S-9, PHENOBARBITAL AND 5,6-BENZOFLAVONE, Method: PREINCUBATION
  mutagenic call: active; positive
Test System: AMES SALMONELLA TYPHIMURIUM, Strain/Indicator: TA100, Metabolic Activation: RAT, LIVER, S-9, PHENOBARBITAL AND 5,6-NAPHTHOFLAVONE, Method: PREINCUBATION
  mutagenic call: active; positive
Test System: UDS RODENT HEPATOCYTES, Strain/Indicator: THY INCORP (NON-S-PHASE), Metabolic Activation: NONE, Method: AUTORADIOGRAPHY
  mutagenic call: active; positive

## CCN(CC)CCCN
[4]
  mutagenic call: inactive; negative
Test System: AMES SALMONELLA TYPHIMURIUM, Strain/Indicator: TA98, Metabolic Activation: RAT, LIVER, S-9, PCB, Method: PREINCUBATION
  mutagenic call: inactive; negative
[2]
  mutagenic call: inactive; negative
Test System: AMES SALMONELLA TYPHIMURIUM, Strain/Indicator: TA100, Metabolic Activation: RAT, LIVER, S-9, PCB, Method: PREINCUBATION
  mutagenic call: inactive; negative

## O=[N+]([O-])c1ccc(Nc2ccccc2O)c([N+](=O)[O-])c1
Test System: AMES SALMONELLA TYPHIMURIUM, Strain/Indicator: TA97, Metabolic Activation: HAMSTER, LIVER, S-9, AROCLOR 1254 (10%), Method: PREINCUBATION
  mutagenic call: active; positive
Test System: AMES SALMONELLA TYPHIMURIUM, Strain/Indicator: TA97, Metabolic Activation: NONE, Method: PREINCUBATION
  mutagenic call: active; positive
Test System: AMES SALMONELLA TYPHIMURIUM, Strain/Indicator: TA97, Metabolic Activation: RAT, LIVER, S-9, AROCLOR 1254 (10%), Method: PREINCUBATION
  mutagenic call: active; positive
Test System: AMES SALMONELLA TYPHIMURIUM, Strain/Indicator: TA98, Metabolic Activation: HAMSTER, LIVER, S-9, AROCLOR 1254 (10%), Method: PREINCUBATION
  mutagenic call: active; positive
[4]
  mutagenic call: active; positive
Test System: AMES SALMONELLA TYPHIMURIUM, Strain/Indicator: TA98, Metabolic Activation: RAT, LIVER, S-9, AROCLOR 1254 (10%), Method: PREINCUBATION
  mutagenic call: active; positive
Test System: AMES SALMONELLA TYPHIMURIUM, Strain/Indicator: TA100, Metabolic Activation: HAMSTER, LIVER, S-9, AROCLOR 1254 (10%), Method: PREINCUBATION
  mutagenic call: active; positive
[2]
  mutagenic call: inactive; negative
Test System: AMES SALMONELLA TYPHIMURIUM, Strain/Indicator: TA100, Metabolic Activation: RAT, LIVER, S-9, AROCLOR 1254 (10%), Method: PREINCUBATION
  mutagenic call: active; positive
Test System: AMES SALMONELLA TYPHIMURIUM, Strain/Indicator: TA1535, Metabolic Activation: RAT, LIVER, S-9, AROCLOR 1254 (10%), Method: PREINCUBATION
  mutagenic call: active; positive

## CC(=O)Nc1ccc2cccnc2c1
[4]
  mutagenic call: inactive; negative
Test System: AMES SALMONELLA TYPHIMURIUM, Strain/Indicator: TA98, Metabolic Activation: RAT, LIVER, S-9, KANECHLOR 500, Method: PREINCUBATION
  mutagenic call: active; positive
[2]
  mutagenic call: inactive; negative
Test System: AMES SALMONELLA TYPHIMURIUM, Strain/Indicator: TA100, Metabolic Activation: RAT, LIVER, S-9, KANECHLOR 500, Method: PREINCUBATION
  mutagenic call: active; positive
